Measurements as given in patent publication US20250302823A1, “COMPOSITIONS AND METHODS FOR TREATING HEPATIC […] GLYCINE TRANSPORT INHIBITORS” (Disc Medicine, Inc., priority 2022, published 2025).

Columns and labels:
GlyT1 = target: T1, GlyT1 (Homo sapiens, UniProt P48067); experiment: 3H-glycine uptake in HepG2 cells overexpressing GlyT1; format: cell-based
T1 construct: expressed in transfected cells; host or cells: HepG2, lentiviral infection (pLenti6.3-GlyT1)
T1 sequence (P48067 1-706): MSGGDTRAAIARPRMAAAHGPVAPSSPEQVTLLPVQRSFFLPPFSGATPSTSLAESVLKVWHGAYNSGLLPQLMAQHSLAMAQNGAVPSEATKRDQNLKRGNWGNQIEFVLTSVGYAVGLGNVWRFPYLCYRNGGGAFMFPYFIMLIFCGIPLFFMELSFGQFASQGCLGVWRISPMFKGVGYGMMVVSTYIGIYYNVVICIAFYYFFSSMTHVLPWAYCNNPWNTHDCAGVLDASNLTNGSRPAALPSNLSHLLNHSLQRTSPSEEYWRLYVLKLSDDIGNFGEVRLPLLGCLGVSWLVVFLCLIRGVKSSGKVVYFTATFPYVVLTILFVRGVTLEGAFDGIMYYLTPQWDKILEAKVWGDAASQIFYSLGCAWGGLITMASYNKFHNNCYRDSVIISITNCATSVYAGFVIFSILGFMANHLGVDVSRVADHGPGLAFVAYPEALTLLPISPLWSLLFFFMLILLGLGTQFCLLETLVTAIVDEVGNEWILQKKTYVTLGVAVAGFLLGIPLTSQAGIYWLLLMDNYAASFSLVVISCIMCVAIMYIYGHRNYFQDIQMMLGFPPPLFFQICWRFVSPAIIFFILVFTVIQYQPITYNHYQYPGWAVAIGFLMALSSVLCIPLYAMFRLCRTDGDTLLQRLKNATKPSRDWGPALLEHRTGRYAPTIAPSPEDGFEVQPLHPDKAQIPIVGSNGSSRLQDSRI
Method: The hepatic originated cell line HepG2 cell was engineered via lentiviral infection to overexpress untagged GlyT1 (FIG. 4A) or HA-Flag-tagged GlyT1 (FIG. 4B). Overexpression of GlyT1 was used to mimic the phenobarbital induced AIP symptoms observed in HepG2 as described in Example 3. The HA-Flag tagged construct was used to confirm the overexpression of the GlyT1 protein by Western blot. Overexpression of the untagged construct was confirmed by qPCR. The cells were cultured in the presence of the GlyT1 inhibitor bitopertin at room temperature for 60 min and then incubated with 20 nM ^3H-labeled glycine in the presence of 25 μM unlabeled glycine for 60 min. The uptake of glycine was measured by detection of radioisotope levels.

[1] = tested on: HepG2 cells transduced with shHMBS, GlyT1, ALAS1; experiment: 5-ALA and PBG production in AIP cellular model (HepG2 with shHMBS, GlyT1, ALAS1); format: cell-based, human
Excerpt: The hepatic origin cell line HepG2 was engineered to express shRNA against HMBS, a gene in the heme biosynthesis pathway whose loss-of-function mutations cause hepatic porphyria. The shRNA reduced HMBS mRNA by 50% and HMBS protein by 70%. Hepatic porphyria is a dormant disease activated by increased expression of ALAS1. To establish the cellular model that resembles the pathologic status of hepatic porphyria, the HepG2 cells with HMBS knockdown were also transduced by lentivirus to overexpress ALAS1 and GlyT1.
The normal plasma glycine concentration in human adults ranges from 0.12 to 0.55 mM. To confirm GlyT1 inhibitors such as bitopertin can decrease production of toxic metabolites at physiological condition, the modified HepG2 cells were treated with bitopertin in the presence of different concentrations of glycine (0.1-1 mM).

[2] = tested on: ALAS1 and GlyT1 mRNA in HepG2 cells; experiment: qPCR expression of ALAS1 and GlyT1 in HepG2 cells after phenobarbital

SMILES	IC50 (GlyT1; engineered HepG2 overexpressing untagged or HA-Flag-tagged GlyT1, 20 nM 3H-glycine + 25 μM unlabeled glycine, 60 min)	glycine uptake in the engineered HepG2 cells (GlyT1; in the presence of bitopertin)	toxic metabolite 5-ALA at different glycine concentrations ([1]; glycine 0.1-1 mM in medium, FIG. 6A)	toxic metabolite PBG at different glycine concentrations ([1]; glycine 0.1-1 mM in medium, FIG. 6B)	production of toxic metabolite 5-ALA ([1]; modified HepG2 cells, FIG. 5A)	production of toxic metabolite PBG ([1]; modified HepG2 cells, FIG. 5B)	increase of mRNA of ALAS1 and GlyT1 ([2]; HepG2, 24 h after phenobarbital treatment)	increase of mRNA of ALAS1 and GlyT1 ([2]; HepG2, 48 h after phenobarbital treatment)
C[C@H](Oc1ccc(S(C)(=O)=O)cc1C(=O)N1CCN(c2ncc(C(F)(F)F)cc2F)CC1)C(F)(F)F [bitopertin]	710 to 1540 nM	significantly reduced	consistent reduction	consistent reduction	significantly decrease	significantly decrease		
CCC1(c2ccccc2)C(=O)NC(=O)NC1=O [phenobarbital]							3 fold	6 fold
